Measured values as given in PubChem BioAssay (NCI).
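1) Cells in 96-well plates. 2) Compound, 48 h, 5 concentrations. 3) Linear interpolation between surrounding doses. 4) Unreached endpoint = highest concentration. GI50 = concentration required for 50% inhibition of growth. The concentration for full growth arrest is given as TGI.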

Experiments:
Assay in all cases: NCI-60 cell line screen, 48 h; in the data active means GI50 below about 0.43 µM; inactive means the rest
[1] = system: A498 renal
[2] = system: A549 NSCLC
[3] = system: ACHN renal
[4] = system: BT-549 breast
[5] = system: CCRF-CEM leukemia
[6] = system: COLO 205 colon
[7] = system: DU-145 prostate
[8] = system: EKVX NSCLC
[9] = system: HCC-2998 colon
[10] = system: HCT-116 colon
[11] = system: HCT-15 colon
[12] = system: HL-60(TB) leukemia
[13] = system: HOP-62 NSCLC
[14] = system: HOP-92 NSCLC
[15] = system: HS 578T breast
[16] = system: HT29 colon
[17] = system: IGROV1 ovarian
[18] = system: K-562 leukemia
[19] = system: KM12 colon
[20] = system: LOX IMVI melanoma
[21] = system: M14 melanoma
[22] = system: MALME-3M melanoma
[23] = system: MCF7 breast
[24] = system: MDA-MB-231 breast
[25] = system: MDA-MB-435
[26] = system: MOLT-4 leukemia
[27] = system: NCI-H226 lung
[28] = system: NCI-H23 lung
[29] = system: NCI-H460 lung
[30] = system: NCI-H522 lung
[31] = system: NCI/ADR-RES ovarian
[32] = system: OVCAR-3 ovarian
[33] = system: OVCAR-4 ovarian
[34] = system: OVCAR-5 ovarian
[35] = system: OVCAR-8 ovarian
[36] = system: RPMI-8226 leukemia
[37] = system: RXF 393 renal
[38] = system: SF-268 CNS
[39] = system: SF-295 CNS
[40] = system: SF-539 CNS
[41] = system: SK-MEL-2 melanoma
[42] = system: SK-MEL-28 melanoma
[43] = system: SK-MEL-5 melanoma
[44] = system: SK-OV-3 ovarian
[45] = system: SN12C renal
[46] = system: SNB-19 CNS
[47] = system: SNB-75 CNS
[48] = system: SR leukemia
[49] = system: SW-620 colon
[50] = system: T-47D breast
[51] = system: TK-10 renal
[52] = system: U251 CNS
[53] = system: UACC-257 melanoma
[54] = system: UO-31 renal

CS(=O)(=O)OCCn1c2c(c3c(O)cccc31)C(=O)c1ccccc1-2
> 100 µM: TGI [1] | TGI [2] | TGI [3] | TGI [4] | TGI [5] | TGI [6] | TGI [7] | TGI [8] | TGI [9] | TGI [10] | TGI [11] | TGI [12] | TGI [13] | TGI [14] | TGI [15] | TGI [16] | TGI [17] | TGI [18] | TGI [19] | TGI [20] | TGI [21] | TGI [22] | TGI [23] | TGI [24] | TGI [25] | TGI [26] | TGI [27] | TGI [28] | TGI [29] | TGI [30] | TGI [31] | TGI [32] | TGI [33] | TGI [34] | TGI [35] | TGI [36] | TGI [37] | TGI [38] | TGI [39] | TGI [40] | TGI [41] | TGI [42] | TGI [43] | TGI [44] | TGI [45] | TGI [46] | TGI [47] | TGI [48] | TGI [49] | TGI [50] | TGI [51] | TGI [52] | TGI [53] | TGI [54]
inactive: GI50 [1] > 100 µM | GI50 [2] > 100 µM | GI50 [3] 60.3 µM | GI50 [4] > 100 µM | GI50 [5] 37.1 µM | GI50 [6] > 100 µM | GI50 [7] > 100 µM | GI50 [8] > 100 µM | GI50 [9] 36 µM | GI50 [10] 44.7 µM | GI50 [11] > 100 µM | GI50 [12] 30.9 µM | GI50 [13] 87.1 µM | GI50 [14] 24.7 µM | GI50 [15] > 100 µM | GI50 [16] 99.8 µM | GI50 [17] > 100 µM | GI50 [18] > 100 µM | GI50 [19] 80.2 µM | GI50 [20] 54.1 µM | GI50 [21] > 100 µM | GI50 [22] > 100 µM | GI50 [23] > 100 µM | GI50 [24] 20.4 µM | GI50 [25] 46 µM | GI50 [26] 36.5 µM | GI50 [27] 39.7 µM | GI50 [28] > 100 µM | GI50 [29] > 100 µM | GI50 [30] 95.1 µM | GI50 [31] > 100 µM | GI50 [32] 66.6 µM | GI50 [33] > 100 µM | GI50 [34] > 100 µM | GI50 [35] > 100 µM | GI50 [36] 19.7 µM | GI50 [37] > 100 µM | GI50 [38] 78.5 µM | GI50 [39] 84.3 µM | GI50 [40] > 100 µM | GI50 [41] > 100 µM | GI50 [42] > 100 µM | GI50 [43] > 100 µM | GI50 [44] 29 µM | GI50 [45] 33.7 µM | GI50 [46] 40.7 µM | GI50 [47] > 100 µM | GI50 [48] 10.3 µM | GI50 [49] > 100 µM | GI50 [50] 64.7 µM | GI50 [51] > 100 µM | GI50 [52] 77.3 µM | GI50 [53] > 100 µM | GI50 [54] > 100 µM
